Where “and” joins values, the source holds several entries; their conditions need not be identical. Equal entries are not always repeated. Ends that are not written are not given here.
Assays:
[1] = tested on: FIV Wo isolate; test: Viral load in the tissues by competitive RT-PCR; type: in vivo, cats; details: 5 weeks after the test, FIG. 4
Description: The cats are sacrificed five weeks after the virulence test. The lymphoid organs (spleen, thymus, axial lymphatic ganglia) are recovered and frozen in liquid nitrogen, for extraction of the RNA.
Frozen spleen and thymus tissues are reduced to powder and immediately dispersed in the lysis buffer provided with the RNA extraction kit (RNeasy, Qiagene), with the aid of a tissue homogenizer (Ultra-Turrax). The frozen axillary lymphatic ganglia are dispersed directly in the lysis buffer; the RNA is then extracted using the RNeasy kit, according to the manufacturer's instructions.
The contaminant DNA is removed by hydrolysis with DNase 1 (RQ1. RNase-free DNase, Promega).
The viral load in the tissues is evaluated 5 weeks after the test by counting the number of copies of viral RNA in the axillary lymphatic ganglia and in the thymus by competitive RT-PCR.
Given that the amplified fragment (amplicon) is located in the intron of the sub-genomic viral RNA, the copies of viral RNA counted in the tissues represent the complete transcripts, which are either intracellular or encapsidated in the extracellular viral particles.

[2] = tested on: p25 recombinant FIV capsid protein; test: Seroconversion ELISA after the virulence test, p25; type: in vivo, cats; details: for Binding of the sera to p25, 3 weeks after the virulence test / Binding of the sera to p25, 4 weeks after the virulence test / Binding of the sera to p25, 5 weeks after the virulence test: ELISA, seral dilution 1/100, individual cats
Procedure: (§1) The cats are subjected to a virulence test, one week after the final immunization, by means of an intraperitoneal inoculation of 10 CID50 of FIV Wo isolate, one CID50 corresponding to the dose capable of infecting 50% of the cats.
(§2) The production on of antibodies is evaluated before the test by means of an ELISA using an immobilized peptide (SU2, SU5, TM2 or TM3-19) and immunoprecipitation. After the test, the seroconversion is monitored by an ELISA using immobilized envelope peptides and a recombinant FTV capsid protein.
(§3) The ELISA with the immobilized envelope peptides corresponding to the immunogenic domains SU2 and TM2 and with the immobilized recombinant p25 protein (FIV capsid protein) is carried out as described in Avraméas A. et al. (Res. Virol., 1993, 144, 209-218).
(§4) Microplates (Immunolon II, Dynatech) are coated with 0.5 μg/well for the peptides and with 0.1 μg/well for the p25 protein.
(§5) The tests are carried out in duplicate and the results are expressed as average values.
(§6) After the test, the seroconversion against the envelope peptides and the p25 protein is evaluated at serum dilutions of 1/25 and 1/100, respectively.
(§7) The absorbance values (at 405 nm) are corrected by subtraction of the absorbance values obtained by binding with an immobilized control peptide.
(§8) The tests are normalized with reference to the binding of a mixture of serum from cats infected with FIV with a peptide representing the immunodominant domain of the FIV transmembrane glycoprotein (TM2) (Avraméas A. et al., Res. Virol., 1993, 144, 209-218).

[3] = tested on: FIV Wo; test: Test of reduction of viral infectivity in mitogen-activated feline PBM cells; type: cell-based; details: PBMC cells activated with a mitogen; serum dilution 1/5
Procedure: For the test of reduction of the viral infectivity, serial dilutions ( 1/50, 1/100, 1/200 and 1/400) of a stock suspension of Wo isolate and a single dilution of serum (⅕) are prepared in a complete RPMI medium containing 50 μM of 2-ME and 10 mM of HEPES.
The feline serum is mixed with an equal volume of the serial dilutions of virus and incubated in a final volume of 100 μl for one hour at 37° C.
The concentration of PBM cells activated with a mitogen is adjusted to 4×10^6/ ml in a complete RPMI medium comprising 2-ME, HEPES and 200 U/ml of recombinant human IL-2. 0.1 ml of cell suspension (4×10^5 cells) is added to the tubes.
After incubation overnight, the viral inoculum is recovered by washing the cells twice with 0.5 ml of complete RPMI medium.
The cells are then resuspended fin 0.2 ml of feline serum diluted in a complete RDMI medium comprising 2-ME, HEPES and 100 U/ml of IL-2, and then transferred into the wells of 96-well microtitration plates.
Half of the medium is replaced four days after the infection.
10 μl aliquots are recovered 7 days after the infection, for an analysis of the reverse transcriptase activity.
Given that the Wo strain was not adapted by passage on CrFK cells, the influence of the antibodies was studied on the infection in feline PBMC cells.

[4] = tested on: envelope glycoproteins of the Wo strain; test: Immunoprecipitation of envelope glycoproteins by sera (infected PBM cells); type: in vivo; details: PBM cell lysates after acute infection with FIV Wo; group of four cats
Description: (§9) The sera collected on the day of the test (at a dilution of 1/40) are used to immunoprecipitate the envelope glycoproteins derived from the metabolically labelled FL-4 cells and feline mononuclear cells (PBM cells) infected with the FIV Wo strain, as described in G. Pancino et al. (Virology, 1995, 206, 796-806).
Given that the TM3-19 peptide, deduced from the Env sequence of the FIV Wo strain, comprises 4 different residues out of 19, relative to the Petaluma sequence, the capacity to immunoprecipitate sera before the test of the cats immunized with the TM3-19 peptide was tested against the envelope glycoproteins of the Wo strain, obtained from PBM cell lysates after acute infection with the FIV Wo strain.

[5] = tested on: viral components (SU2 and TM2 peptides, recombinant capsid protein); test: Antiviral humoral response after the virulence test (ELISA with viral components); type: in vivo; details: in comparison with the control cats
Procedure: as §2, §3, §6
After testing with the FIV Wo strain, most of the cats show a humoral response with respect to the viral components, as illustrated by the ELISA with the SU2 and TM2 peptides, derived from the external and transmembrane glycoproteins, respectively, and the recombinant capsid protein.

[6] = tested on: SU2 envelope peptide; test: Seroconversion ELISA after the virulence test, SU2 peptide; type: in vivo, cats
Procedure: as §1, §2, §3, §4, §5, §6, §7, §8

[7] = tested on: FIV Wo isolate; test: Plasmatic viraemia by isolation of the virus in PBM cell culture; type: in vivo, cats
Description: as §1
The plasmatic viraemia is quantified by culturing PBM cells (Ho D. D. et a., N. Engl. J. Med., 1989, 321, 1621-1625).
The infection is estimated by determining the p25 by ELISA (Petcheck, IDEXX) in culture supernatants, obtained 14 and 21 days after the inoculation of different volumes of plasma (0.2, 2, 10, 40, 200 or 1000 μl). The final plasmatic dilution giving a positive culture is considered as the limit point.
The plasmatic viraemia is expressed as TCDID50/ml of plasma (→doses capable of infecting 50% of the tissue cultures).
For the cats immunized with the TM3-19 peptide and the control cats, the plasmatic viral load is evaluated 3 weeks after the test by isolating the virus.

[8] = tested on: envelope glycoproteins of the Petaluma strain; test: Immunoprecipitation of envelope glycoproteins by sera (metabolically labelled FL-4 cells); type: in vivo, FIV; details: lysates of chronically infected FL-4 cells; groups of four cats
Description: as §9
The recognition of the envelope glycoproteins is estimated by immunoprecipitation of the biosynthetically labelled envelope glycoprotein with sera collected on the day of the test, as summarized in Table I.

[9] = ELISA, seral dilution 1/25, individual cats

Substance	level of viral RNA in the spleen [1]	levels of viral RNA in the axillary lymphatic ganglia [1]	Binding of the sera to p25, 3 weeks after the virulence test [2]	Binding of the sera to p25, 4 weeks after the virulence test [2]	Binding of the sera to p25, 5 weeks after the virulence test [2]	response to the p25 protein ([2]; at 5 weeks after the test)	effect of sera on infection with FIV Wo (reduction of infectivity) [3]	cats whose sera precipitate the envelope protein of the Wo strain [4]	development of an antiviral humoral response after the virulence test [5]	antibody response with respect to the SU2 peptide ([6]; 5 weeks after the test)	Binding of the sera to SU2, 3 weeks after the virulence test [6, 9]	Binding of the sera to SU2, 4 weeks after the virulence test [6, 9]	Binding of the sera to SU2, 5 weeks after the virulence test [6, 9]	Plasmatic viraemia, PBMC culture ([7]; 3 weeks after the test with 10 CID50 of FIV Wo, individual cats)	reduction in the level of infectious virus in the plasma ([7]; three-quarters of the cats, 3 weeks after the test, versus control cats)	cats whose sera immunoprecipitate the envelope glycoproteins of the Petaluma strain [8]
KKGLQQLQEWEDWVGWIGN [TM3-19, 19-amino-acid fragment of the TM3 domain of the FIV Wo Env transmembrane glycoprotein (759-777)]	particularly low in one cat (348)	lower in three cats (346, 348 and 349)	0 optical density (2×) and 0.2 optical density and 0.1 optical density	0.1 optical density and 2.3 optical density and 0 optical density (2×)	0.6 optical density and 2.3 optical density and 0 optical density and 0.1 optical density	one cat (348) immunized with the TM3-19 peptide does not respond and among the other 3 cats, 2 animals (346, 349) develop only weak responses	do not modify the infection	only the sera of 2 cats (346, 347)	weaker and retarded in 3 cats (346, 348, 349)	none of the cats immunized with the TM3-19 peptide developed a detectable antibody response	0 optical density	0 optical density	0 optical density	1 TCID50/ml of plasma (3×) and 1 × 10^2 TCID50/ml of plasma	about 3 logs	
SU2: peptide of the SU2 domain of the FIV surface envelope glycoprotein, SEQ ID NO: 2, used as immunogen (RAISSWKQRNRWEWRPD)			0 optical density	0.2 optical density (2×) and 0.4 optical density and 0 optical density	1.1 optical density and 1.3 optical density and 1.9 optical density and 0.2 optical density		do not modify the infection									3 of the 4 cats (324, 325 and 327)

Source: patent US6391304B1, “Peptides derived from the ENV gene of the feline immunodeficiency virus and their applications” (Centre National de la Recherche Scientifique, priority 1997, dated 2002)
